Reference: PubChem BioAssay (NCI)
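Five concentrations, 48 hours, 96-well plates. GI50: concentration for 50% inhibition of growth. Definition used: TGI = concentration required for complete inhibition of growth.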

Key:
Assay in all cases: NCI-60 cell line screen, 48 h
LOX IMVI melanoma = system: LOX IMVI melanoma
SK-OV-3 ovarian = system: SK-OV-3 ovarian
EKVX NSCLC = system: EKVX NSCLC
UACC-257 melanoma = system: UACC-257 melanoma
NCI-H226 lung = system: NCI-H226 lung
OVCAR-4 ovarian = system: OVCAR-4 ovarian
HT29 colon = system: HT29 colon
OVCAR-3 ovarian = system: OVCAR-3 ovarian
NCI-H522 lung = system: NCI-H522 lung
A549 NSCLC = system: A549 NSCLC

Row | SMILES | TGI (LOX IMVI melanoma) [µM] | TGI (SK-OV-3 ovarian) [µM] | TGI (EKVX NSCLC) [µM] | TGI (UACC-257 melanoma) [µM] | TGI (NCI-H226 lung) [µM] | TGI (OVCAR-4 ovarian) [µM] | TGI (HT29 colon) [µM] | TGI (OVCAR-3 ovarian) [µM] | TGI (NCI-H522 lung) [µM] | TGI (A549 NSCLC) [µM] | GI50 (LOX IMVI melanoma) [µM] | GI50 (SK-OV-3 ovarian) [µM] | GI50 (EKVX NSCLC) [µM] | GI50 (NCI-H226 lung) [µM] | GI50 (OVCAR-4 ovarian) [µM] | GI50 (HT29 colon) [µM] | GI50 (OVCAR-3 ovarian) [µM] | GI50 (NCI-H522 lung) [µM] | GI50 (A549 NSCLC) [µM] | GI50 (UACC-257 melanoma) [µM]
1 | Cc1ccc(Nc2nc(C)c(C(/C=C/c3ccc(/C=C/C(=N/NC(=O)C[n+]4ccccc4)c4sc(Nc5ccc(C)cc5[N+](=O)[O-])nc4C)cc3)=N\NC(=O)C[n+]3ccccc3)s2)c([N+](=O)[O-])c1 | > 100 | > 100 | > 100 | > 100 | 84.5 | > 100 | > 100 | > 100 | > 100 | > 100 | – | – | – | – | – | – | – | – | – | –
2 | COc1c(Cl)cc(NC(=S)C#N)cc1Cl | 38.8 | > 74.7 | > 74 | 53.9 | 57.6 | 97.9 | > 65.8 | > 62.8 | 52.8 | > 100 | – | – | – | – | – | – | – | – | – | –
3 | CC1=C(CO)C(=O)O[C@@H]([C@@H](C)[C@H]2CC[C@H]3[C@@H]4C[C@@H](O)[C@@]5(O)CC=CC(=O)[C@]5(C)[C@H]4CC[C@]23C)C1 | > 100 | > 100 | > 100 | > 100 | > 100 | > 100 | > 100 | > 100 | 30.7 | > 100 | – | – | – | – | – | – | – | – | – | –
4 | O=C1CC(S(=O)(=O)O)C=C1Nc1cccc(Cl)c1 (centres undefined) | > 100 | > 100 | > 100 | > 100 | > 100 | > 100 | > 100 | > 100 | > 100 | > 100 | – | – | – | – | – | – | – | – | – | –
5 | COc1cc(/C=C2\Sc3scc(-c4cccc([N+](=O)[O-])c4)[n+]3C2=O)cc(OC)c1OC | 24.1 | 59.9 | 26.5 | 25.2 | 34.3 | 31.5 | 41.2 | 44.8 | 27.3 | 54.3 | – | – | – | – | – | – | – | – | – | –
6 | CC(C)(O)CC(=O)NCCn1ccc2ncnc(Nc3ccc(Oc4cccc(C(F)(F)F)c4)c(Cl)c3)c21 | > 10 | > 10 | > 10 | > 10 | > 10 | > 10 | > 10 | > 10 | > 10 | > 10 | 2.34 | 0.284 | 0.415 | 3.19 | 5.22 | 3.83 | 2.42 | 0.535 | 3.05 | –
7 | C=C1C(=O)OC2C1C(OC(=O)/C(C)=C/C)CC(O)(CCl)C1C(O)C3OC3(C)C21O (centres undefined) | > 50 | > 50 | > 50 | > 50 | > 50 | > 50 | > 50 | > 50 | 10.2 | > 50 | – | – | – | – | – | – | – | – | – | –
8 | COc1ccc(/C=C2\CCCC3=C2NC(N)=NC3c2ccc(OC)c(OC)c2)cc1OC (centres undefined) | 41.1 | > 100 | > 100 | > 81.1 | 20.2 | > 100 | > 100 | > 100 | 36.8 | > 100 | 4.63 | 13.4 | 39.7 | 3.02 | 5.2 | 7.75 | 5.41 | 7 | 33.2 | 5
9 | CCc1ccc(NC(=O)COC(=O)c2cc([N+](=O)[O-])ccc2Sc2nnnn2C)cc1 | 22 | > 100 | > 100 | 61.2 | 36.1 | 26.9 | 29.3 | 25.4 | 36.3 | 53.1 | 6.75 | 27.1 | 29.5 | 17 | 12.9 | 11.1 | 11.7 | 11.5 | 19.7 | 19.3
